“And” between values parts separate entries of the source, which are not always exact repeats. Identical values can stand only once. Inconclusive results and toxic doses are left out. Rule for the calls: active = survival T/C of 150% or more; inactive = T/C below 125% in these data.
System: P388 leukemia ip, CD2F1 mice, survival T/C
Assay: NCI In Vivo Anticancer Drug Screen. Data for tumor model P388 Leukemia (intraperitoneal) in CD2F1 (CDF1) mice
Conditions: endpoint: median survival time, higher = longer survival
Outline: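 Mice carrying the transplanted tumor received test compound or vehicle. Survival was recorded in each group, and the value is the treated-group measurement divided by that of the vehicle-treated control group.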

[1] = dose: 50.0 mg/kg/injection, schedule: Q01DX009 (ip), vehicle: Klucel (hydroxypropylcellulose) (HPC)
[2] = dose: 100.0 mg/kg/injection, schedule: Q01DX009 (ip), vehicle: Klucel (hydroxypropylcellulose) (HPC)
[3] = dose: 200.0 mg/kg/injection, schedule: Q01DX009 (ip), vehicle: Klucel (hydroxypropylcellulose) (HPC)
[4] = dose: 50.0 mg/kg/injection, schedule: Q01DX005 (ip), vehicle: saline with Tween-80
[5] = dose: 100.0 mg/kg/injection, schedule: Q01DX005 (ip), vehicle: saline with Tween-80
[6] = dose: 200.0 mg/kg/injection, schedule: Q01DX005 (ip), vehicle: saline with Tween-80
[7] = dose: 100.0 mg/kg/injection, schedule: Q04DX003 (ip), vehicle: saline
[8] = dose: 200.0 mg/kg/injection, schedule: Q04DX003 (ip), vehicle: saline
[9] = dose: 400.0 mg/kg/injection, schedule: Q04DX003 (ip), vehicle: saline
[10] = dose: 60.0 mg/kg/injection, schedule: Q01DX005 (ip), vehicle: saline with Tween-80
[11] = dose: 120.0 mg/kg/injection, schedule: Q01DX005 (ip), vehicle: saline with Tween-80
[12] = dose: 240.0 mg/kg/injection, schedule: Q01DX005 (ip), vehicle: saline with Tween-80
[13] = dose: 25.0 mg/kg/injection, schedule: Q04DX003 (ip), vehicle: saline
[14] = dose: 50.0 mg/kg/injection, schedule: Q04DX003 (ip), vehicle: saline

Measured: T/C

CN(c1ccccc1)S(=O)(=O)c1ccccc1
inactive: dose: 100.0 mg/kg/injection, schedule: Q01DX009 (ip), vehicle: saline with Tween-80 95 % of control | dose: 200.0 mg/kg/injection, schedule: Q01DX009 (ip), vehicle: saline with Tween-80 95 % of control | dose: 200.0 mg/kg/injection, schedule: Q04DX003 (ip), vehicle: saline with Tween-80 100 % of control | dose: 400.0 mg/kg/injection, schedule: Q01DX009 (ip), vehicle: saline with Tween-80 100 % of control | dose: 400.0 mg/kg/injection, schedule: Q04DX003 (ip), vehicle: saline with Tween-80 87 % of control

CCOC(=O)Cc1ccc(-c2csc(Nc3ccc(F)cc3)n2)cc1
inactive: [1] 103 % of control | [2] 100 % of control | [3] 105 % of control

COc1cc2c(cc1OC)C1CC(=O)C(CC(C)C)CN1CC2 (configuration not stated)
inactive: dose: 12.5 mg/kg/injection, schedule: Q01DX009 (ip), vehicle: Klucel (hydroxypropylcellulose) (HPC) 100 % of control | dose: 25.0 mg/kg/injection, schedule: Q01DX009 (ip), vehicle: Klucel (hydroxypropylcellulose) (HPC) 100 % of control | [1] 103 % of control

O=C1c2ccccc2-c2c1c1ccccc1c(=O)n2Cc1ccccc1
inactive: dose: 6.25 mg/kg/injection, schedule: Q01DX005 (ip), vehicle: saline with Tween-80 101 % of control | dose: 12.5 mg/kg/injection, schedule: Q01DX005 (ip), vehicle: saline with Tween-80 101 % of control | dose: 25.0 mg/kg/injection, schedule: Q01DX005 (ip), vehicle: saline with Tween-80 104 % of control

O=S(=O)(Nc1cccc(NS(=O)(=O)c2ccccc2)n1)c1ccccc1
inactive: dose: 50.0 mg/kg/injection, schedule: Q01DX001 (ip), vehicle: saline with Tween-80 91 % of control | dose: 100.0 mg/kg/injection, schedule: Q01DX001 (ip), vehicle: saline with Tween-80 91 % of control | dose: 200.0 mg/kg/injection, schedule: Q01DX001 (ip), vehicle: saline with Tween-80 91 % of control

Nc1nc2c(c(=O)[nH]1)N(C(=O)CCCCCCC(=O)N1c3c(nc(N)[nH]c3=O)NCC1CNc1ccc(C(=O)NC(CCC(=O)O)C(=O)O)cc1)C(CNc1ccc(C(=O)NC(CCC(=O)O)C(=O)O)cc1)CN2 (configuration not stated) (tested in a mixture with another compound)
inactive: [4] 100 % of control | [5] 96 % of control | [6] 100 % of control

COc1cc2cnc(-c3ccccc3)c(O)c2cc1OC
inactive: dose: 100.0 mg/kg/injection, schedule: Q04DX003 (ip), vehicle: suspension in saline 98 % of control | dose: 200.0 mg/kg/injection, schedule: Q04DX003 (ip), vehicle: suspension in saline 94 % of control | dose: 400.0 mg/kg/injection, schedule: Q04DX003 (ip), vehicle: suspension in saline 94 % of control

COC(=O)Nc1cc2c(cc1[N+](=O)[O-])OCCOCCOCCOCCO2
inactive: [4] 100 % of control | [5] 98 % of control | [6] 101 % of control

COc1ccc(C2CC(=O)N(c3nc(C)cc(C)n3)C(=O)C2)cc1
inactive: [7] 96 % of control | [8] 102 % of control | [9] 100 % of control

Cc1ccc(NC(=O)N2CCCCC2)cc1NC(=O)N1CCCCC1
inactive: [10] 94 % of control | [11] 91 % of control | [12] 88 % of control

CC(=O)N(C)c1ccc(Nc2cc(S(=O)(=O)O)c(N)c3c2C(=O)c2ccccc2C3=O)cc1
inactive: dose: 60.0 mg/kg/injection, schedule: Q01DX005 (ip), vehicle: saline 98 % of control | dose: 120.0 mg/kg/injection, schedule: Q01DX005 (ip), vehicle: saline 100 % of control | dose: 240.0 mg/kg/injection, schedule: Q01DX005 (ip), vehicle: saline 90 % of control

CSc1c(C(=O)NC(C)C)cc(C(C)(C)C)cc1C(=O)NC(C)C
inactive: [1] 89 % of control | [2] 86 % of control | [3] 89 % of control

Cn1c(N=P(c2ccccc2)(c2ccccc2)c2ccccc2)cc(=O)n(C)c1=O
inactive: dose: 60.0 mg/kg/injection, schedule: Q01DX005 (ip), vehicle: Klucel (hydroxypropylcellulose) (HPC) 101 % of control | dose: 120.0 mg/kg/injection, schedule: Q01DX005 (ip), vehicle: Klucel (hydroxypropylcellulose) (HPC) 102 % of control | dose: 240.0 mg/kg/injection, schedule: Q01DX005 (ip), vehicle: Klucel (hydroxypropylcellulose) (HPC) 101 % of control

Cc1nc(Cl)c2cnccn12
inactive: [13] 100 % of control | [14] 100 % of control

O=c1[nH]c2ncccc2c(O)c1-c1ccccc1
inactive: dose: 50.0 mg/kg/injection, schedule: Q01DX009 (ip), vehicle: saline 107 % of control | dose: 100.0 mg/kg/injection, schedule: Q01DX009 (ip), vehicle: saline 96 % of control | dose: 200.0 mg/kg/injection, schedule: Q01DX009 (ip), vehicle: saline 96 % of control

CC(=O)Oc1cc(C)c(OC(C)=O)c(OC(C)=O)c1C
inactive: dose: 100.0 mg/kg/injection, schedule: Q04DX002 (ip), vehicle: Klucel (hydroxypropylcellulose) (HPC) 102 % of control | dose: 200.0 mg/kg/injection, schedule: Q04DX002 (ip), vehicle: Klucel (hydroxypropylcellulose) (HPC) 90 % of control

Cc1noc(NS(=O)(=O)c2ccc(NCc3c4ccccc4nc4cc(Cl)ccc34)cc2)c1C
inactive: [10] 100 % of control | [11] 97 % of control | [12] 103 % of control

NC(=O)CSc1nnc2ccccn12
inactive: [14] 92 % of control | [7] 100 % of control | [8] 104 % of control

COC(=O)CN(CCCl)P1(=O)OCCCN1CCCl (configuration not stated)
inactive: [10] 97 % of control | [11] 108 % of control

O=C1C(c2[nH]c3cccc(Cl)c3c2O)=Nc2cccc(Cl)c21
inactive: [4] 100 % of control | [5] 104 % of control | [6] 109 % of control

NC(=O)C(CC(=O)O)NC(=O)OCc1ccccc1 (configuration not stated)
inactive: dose: 4.0 mg/kg/injection, schedule: Q01DX009 (ip), vehicle: other 100 % of control | dose: 8.0 mg/kg/injection, schedule: Q01DX009 (ip), vehicle: other 114 % of control | dose: 16.0 mg/kg/injection, schedule: Q01DX009 (ip), vehicle: other 101 % of control | dose: 32.0 mg/kg/injection, schedule: Q01DX009 (ip), vehicle: other 98 % of control | dose: 50.0 mg/kg/injection, schedule: Q01DX009 (ip), vehicle: other 96 % of control | dose: 64.0 mg/kg/injection, schedule: Q01DX009 (ip), vehicle: other 91 % of control | dose: 100.0 mg/kg/injection, schedule: Q01DX009 (ip), vehicle: other 90 % of control | dose: 150.0 mg/kg/injection, schedule: Q01DX009 (ip), vehicle: other 109 % of control | dose: 200.0 mg/kg/injection, schedule: Q01DX009 (ip), vehicle: other 105 % of control | dose: 400.0 mg/kg/injection, schedule: Q01DX009 (ip), vehicle: other 113 % of control

C/C(=C(/O)c1ccccc1)c1nc2ccc(Cl)cc2[nH]c1=O
inactive: dose: 60.0 mg/kg/injection, schedule: Q01DX005 (ip), vehicle: Klucel + Tween-80 103 % of control | dose: 120.0 mg/kg/injection, schedule: Q01DX005 (ip), vehicle: Klucel + Tween-80 94 % of control | dose: 240.0 mg/kg/injection, schedule: Q01DX005 (ip), vehicle: Klucel + Tween-80 91 % of control

CS/C(=C1/C(=O)N(c2ccccc2)N=C1c1ccc(Br)cc1)N1CC1
inactive: dose: 100.0 mg/kg/injection, schedule: Q04DX003 (ip), vehicle: Klucel (hydroxypropylcellulose) (HPC) 95 % of control | dose: 200.0 mg/kg/injection, schedule: Q04DX003 (ip), vehicle: Klucel (hydroxypropylcellulose) (HPC) 101 % of control

O=C1C=C(Cl)C(=O)C2=C1CCCC2
inactive: dose: 6.25 mg/kg/injection, schedule: Q04DX002 (ip), vehicle: saline with Tween-80 97 % of control

OC1CCC(O)C1(Cl)Cl (configuration not stated)
inactive: [13] 99 % of control and 96 % of control | [14] 98 % of control and 107 % of control | [7] 98 % of control and 103 % of control and 118 % of control | [8] 98 % of control and 101 % of control and 124 % of control | [9] 117 % of control

C[N+]1(C)CCC(=O)C(c2ccccc2)C1 (configuration not stated)
inactive: [14] 113 % of control | [7] 113 % of control

— PubChem BioAssay AID330 (DTP/NCI, 2004)
